Measurements as given in patent US10960036B2, “Pharmaceutical composition for preventing and treating alpha herpes virus infection, containing, as active ingredient, Elaeocarpus sylvestris extract or fraction thereof” (priority 2016, dated 2021).

System: varicella-zoster virus (VZV)
Experiment: Expression of VZV replication-related genes (gB, ORF62) in infected MRC-5 cells, real-time PCR
Format: cell-based
Details: 50 μg/mL, 3 days after infection
Experimental: Viruses used to measure anti-replication activity were varicella-zoster virus (VZV), herpes simplex virus-1 (HSV-1) and herpes simplex virus-2 (HSV-2), which were obtained from the American Type Culture Collection (ATCC), and MRC-5 and Vero cells were also obtained from the ATCC and cultured. In a 5% CO2 incubator at 37° C., Vero cells were cultured in RPMI1640 medium containing 10% fetal bovine serum and 25 mM HEPES (2-[4-(2-hydroxyethyl) piperazin-1-yl] ethanesulfonic acid), and MRC-5 cells were cultured in MEM medium containing 10% fetal bovine serum and 25 mM HEPES.
Next, on 3 days after the infection, the cells were collected, and the inhibitory effect on viral replication was analyzed by real-time PCR using VZV glycoprotein B (gB) and open reading frame 62 (ORF62) DNAs.
MRC-5 cells were infected with VZV by culturing them with VZV-infected cells at a cell-to-cell ratio of 1:8, and treated with the Elaeocarpus sylvestris extract and its fractions (extract, hexane (Hx), dichloromethane (MC), ethyl acetate (EA), butanol (BuOH), and distilled water (DW) 50 μg/mL). On 3 days after the infection, the cells were collected, and the inhibitory effect against viral replication was analyzed by real-time PCR using VZV glycoprotein B (gB) and open reading frame 62 (ORF62) DNAs.
In order to analyze the VZV replication inhibitory effect and target of Elaeocarpus sylvestris extract components, MRC-5 cells were infected with VZV by culturing them with VZV-infected cells at a cell-to-cell ratio of 1:8, and treated with 50 μg/mL of each of Elaeocarpus sylvestris extract fractions (DS-1, DS-2, DS-3 and DS-4). On 3 days after the infection, the cells were collected, and the viral replication inhibitory effect of the fractions was analyzed by real-time PCR using VZV glycoprotein B (gB) and open reading frame 62 (ORF62) DNAs.

Molecule | expression of VZV glycoprotein B (gB) | expression of VZV open reading frame 62 (ORF62)
Casuarictin [DS-4] | decreased | decreased
O=C1O[C@H]2[C@@H]3OC(=O)c4cc(O)c(O)c(O)c4-c4c(cc(O)c(O)c4O)C(=O)OC[C@H]2O[C@@H](OC(=O)c2cc(O)c(O)c(O)c2)[C@@H]3OC(=O)c2cc(O)c(O)c3c2[C@@H]2C1=CC(=O)[C@](O)(O3)C2(O)O [DS-3, Geraniin] | decreased | decreased
COC(=O)c1cc(O)c(O)c(O)c1 (single isomer, unassigned) [DS-2, Methyl gallate] | decreased | decreased
COC(=O)c1cc(O)c(O)c(O)c1 (single isomer, unassigned) [DS-1, Methyl gallate] | decreased | decreased
